Experimental data reported in patent publication US20080153873A1, “DIHYDROBENZOFURANYL DERIVATIVES AND METHODS OF THEIR USE” (Wyeth, priority 2006, published 2008).
Counter-ions that a name gives are not always drawn.

Biological target: T1, human hNET (Homo sapiens, UniProt P23975)
T1 construct: expressed in transfected cells; host or cells: MDCK-Net6 cells (MDCK, stably transfected)
Assay: Functional Norepinephrine (NE) Uptake Assay in MDCK-Net6 cells
Type: cell-based
Details: % inhibition of NE uptake @ 6 μM; MDCK-Net6 cells; read-out: hNET IC50 (nM) (% Inhibition)
Experimental: MDCK-Net6 cells, stably transfected with human hNET (Pacholczyk, T., R. D. Blakely, and S. G. Amara, Nature, 1991, 350(6316): p. 350-4) were cultured in growth medium containing high glucose DMEM (Gibco, Cat. No. 11995), 10% FBS (dialyzed, heat-inactivated, US Bio-Technologies, Lot FBD1129HI) and 500 μg/ml G418 (Gibco, Cat. No. 10131). Cells were plated at 300,000 T75 flask and cells were split twice weekly.
On day 1, cells were plated at 3,000 cells/well in growth medium and maintained in a cell incubator (37° C., 5% CO2). On day 2, growth medium was replaced with 200 μl of assay buffer (25 mM HEPES; 120 mM NaCl; 5 mM KCl; 2.5 mM CaCl2; 1.2 mM MgSO4; 2 mg/ml glucose (pH 7.4, 37° C.)) containing 0.2 mg/ml ascorbic acid and 1 μM pargyline. For screening, 25 μl of compound in 4% DMSO was added directly to each well and the plate is incubated for 5 minutes at 37° C.
To initiate the norepinephrine reuptake, 16 nM (final concentration) of ^3H norepinephrine (specific activity; 40-80 Ci/mmol) in assay buffer was delivered in 25 μl aliquots to each well, and the plates were incubated for 5 minutes at 37° C. The reaction was aspirated from the plate and the cells washed with 250 μl of 50 mM Tris Buffer (4° C.). The plates were left to dry for 1 hour. The cells were lysed using 0.25 M NaOH solution then placed on a shake table and vigorously shaken for 10 minutes. After cell lysis, 100 μl of Microscint 20 (PerkinElmer; #87-051101) were added to the plates and the plates were sealed with film tape and replaced on the shake table for a minimum of 10 minutes. The plates were counted in a TopCount counter (PerkinElmer).
For screening single point determinations, each compound plate contains at least 3 control wells (maximum NE reuptake determinant) and 3 non-specific wells determined by adding 20 μM of desipramine (minimum NE reuptake determinant). Determination of active compounds are calculated using a Microsoft Excel spread sheet applying the following formula:
% inhibition=[1−((mean cpm test compound wells−mean cpm non-specific wells)/(mean cpm control wells−mean cpm non-specific wells))]×100
For IC50 determination, raw cpm values were generated in a data file from the TopCount counter. The data was organized using Microsoft Excel and transferred into PRIZM graphing and statistical program, which calculates the estimated IC50 value. Calculation of IC50 values were made using non-linear regression analysis with a sigmoidal dose response with variable slope. The statistical program used wells containing ^3H norepinephrine only as the maximal NE reuptake determinant and wells containing ^3H norepinephrine plus 20 μM desipramine as the minimal NE reuptake determinant (non-specific determinant). Estimation of the IC50 value was completed on a log scale and the line was fit between the maximal and minimal NE reuptake values.

T1 sequence (P23975 whole entry): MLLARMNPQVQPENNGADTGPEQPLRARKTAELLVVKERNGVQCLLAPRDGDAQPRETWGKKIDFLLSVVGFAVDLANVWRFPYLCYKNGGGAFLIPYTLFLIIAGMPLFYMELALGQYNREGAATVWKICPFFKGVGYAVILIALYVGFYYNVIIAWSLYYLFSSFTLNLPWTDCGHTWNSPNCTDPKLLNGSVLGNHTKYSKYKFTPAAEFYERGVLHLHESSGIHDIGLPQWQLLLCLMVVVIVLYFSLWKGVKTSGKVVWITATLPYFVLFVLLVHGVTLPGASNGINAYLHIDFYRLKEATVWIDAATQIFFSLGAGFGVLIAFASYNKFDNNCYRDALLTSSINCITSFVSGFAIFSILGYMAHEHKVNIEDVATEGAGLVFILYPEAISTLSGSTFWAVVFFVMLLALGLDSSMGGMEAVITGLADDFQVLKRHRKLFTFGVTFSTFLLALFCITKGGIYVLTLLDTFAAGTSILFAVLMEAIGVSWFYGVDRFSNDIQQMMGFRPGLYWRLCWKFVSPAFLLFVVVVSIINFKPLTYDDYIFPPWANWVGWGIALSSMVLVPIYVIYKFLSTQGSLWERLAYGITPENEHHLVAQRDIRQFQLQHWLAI

inhibition at 6 µM [%] | SMILES
42 | CCNC[C@@H]1Oc2ccccc2[C@H]1N1CC(C)(C)c2cccc(F)c21 [Example 8, N-{[(2S,3R)-3-(7-fluoro-3,3-dimethyl-2,3-dihydro-1H-indol-1-yl)-2,3-dihydro-1-benzofuran-2-yl]methyl}ethanamine hydrochloride]
30 | CC(C)NC[C@@H]1Oc2ccccc2[C@H]1N1CC(C)(C)c2cccc(F)c21 [Example 6, N-{[(2S,3R)-3-(7-fluoro-3,3-dimethyl-2,3-dihydro-1H-indol-1-yl)-2,3-dihydro-1-benzofuran-2-yl]methyl}propan-2-amine hydrochloride]
54 | CNCC1Oc2cc(F)ccc2C1N1C(=O)C(C)(C)c2ccccc21 (stereo not drawn) [Example 14, 1-{6-fluoro-2-[(methylamino)methyl]-2,3-dihydro-1-benzofuran-3-yl}-3,3-dimethyl-1,3-dihydro-2H-indol-2-one hydrochloride]
42 | CNCC1Oc2ccccc2C1n1ccc2ccccc21 (racemic) [Example 11, (+/−)-1-[3-(1H-indol-1-yl)-2,3-dihydro-1-benzofuran-2-yl]-N-methyl methanamine hydrochloride]
63 | CNC[C@@H]1Oc2ccccc2[C@H]1N1CC(C)(C)c2cccc(F)c21 [Example 5, 1-[(2S,3R)-3-(7-fluoro-3,3-dimethyl-2,3-dihydro-1H-indol-1-yl)-2,3-dihydro-1-benzofuran-2-yl]-N-methylmethanamine hydrochloride]
37 | CN(C)C[C@@H]1Oc2ccccc2[C@H]1N1CC(C)(C)c2cccc(F)c21 [Example 7, 1-[(2S,3R)-3-(7-fluoro-3,3-dimethyl-2,3-dihydro-1H-indol-1-yl)-2,3-dihydro-1-benzofuran-2-yl]-N,N-dimethylmethanamine hydrochloride]

Same assay, conditions: MDCK-Net6 cells stably transfected with hNET; 3H norepinephrine uptake, 16 nM

IC50 [µM] | SMILES
0.343 | CNC[C@H]1Oc2ccccc2[C@@H]1N1CC(C)(C)c2cc(F)ccc21 [Example 2, 1-[(2R,3S)-3-(5-fluoro-3,3-dimethyl-2,3-dihydro-1H-indol-1-yl)-2,3-dihydro-1-benzofuran-2-yl]-N-methylmethanamine hydrochloride]
0.846 | CCOc1ccccc1O[C@H]1c2ccccc2O[C@@H]1CNC [Example 9, 1-[(2R,3S)-3-(2-ethoxyphenoxy)-2,3-dihydro-1-benzofuran-2-yl]-N-methylmethanamine hydrochloride]
0.0272 | CNC[C@H]1Oc2ccccc2[C@@H]1N1CC(C)(C)c2cccc(F)c21 [Example 1, 1-[(2R,3S)-3-(7-fluoro-3,3-dimethyl-2,3-dihydro-1H-indol-1-yl)-2,3-dihydro-1-benzofuran-2-yl]-N-methylmethanamine hydrochloride]
1.14 | CNCC1Oc2ccccc2C1N1C(=O)C(C)(C)c2ccccc21 (stereo not drawn) [Example 15, 3,3-dimethyl-1-{2-[(methylamino)methyl]-2,3-dihydro-1-benzofuran-3-yl}-1,3-dihydro-2H-indol-2-one hydrochloride]
0.244 | CNCC1Oc2ccccc2C1N1CCc2ccccc21 (racemic) [Example 10, (+/−)-1-[3-(2,3-dihydro-1H-indol-1-yl)-2,3-dihydro-1-benzofuran-2-yl]-N-methylmethanamine hydrochloride]
0.811 | CNCC1Oc2ccccc2C1N1CCCc2ccccc21 (stereo not drawn) [Example 16, 1-[3-(3,4-dihydroquinolin-1(2H)-yl)-2,3-dihydro-1-benzofuran-2-yl]-N-methylmethanamine hydrochloride]
0.301 | CNCC1Oc2ccccc2C1n1ccc2ccccc21 (racemic) [Example 11, (+/−)-1-[3-(1H-indol-1-yl)-2,3-dihydro-1-benzofuran-2-yl]-N-methyl methanamine hydrochloride]
3.8 | CNCC1Oc2cc(F)ccc2C1n1c(=O)n(C(C)C)c2cccc(F)c21 (racemic) [Example 18, 4-Fluoro-3-{(2SR,3RS)-6-fluoro-2-[(methylamino)methyl]-2,3-dihydro-1-benzofuran-3-yl}-1-isopropyl-1,3-dihydro-2H-benzimidazol-2-one hydrochloride]
1.03 | CNC[C@@H]1Oc2c(F)cccc2[C@H]1N1C(=O)C(C)(C)c2cccc(F)c21 [Example 12, 7-fluoro-1-{(2S,3R)-7-fluoro-2-[(methylamino)methyl]-2,3-dihydro-1-benzofuran-3-yl}-3,3-dimethyl-1,3-dihydro-2H-indol-2-one hydrochloride]
1.75 | CNC[C@H]1Oc2cc(F)ccc2[C@@H]1n1c(=O)n(C(C)C)c2cccc(F)c21 (single isomer, unassigned) [Example 20, hydrochloride]
3.55 | CNCC1Oc2ccccc2C1N(C)c1ccccc1 (stereo not drawn) [Example 17, N-methyl-2-[(methylamino)methyl]-N-phenyl-2,3-dihydro-1-benzofuran-3-amine hydrochloride]
12.4 | CNC[C@@H]1Oc2cc(F)ccc2[C@H]1n1c(=O)n(C(C)C)c2cccc(F)c21 (single isomer, unassigned) [Example 19, hydrochloride]
0.0885 | CNC[C@H]1Oc2ccc(F)cc2[C@@H]1N1CC(C)(C)c2cccc(F)c21 [Example 13, 1-[(2R,3S)-5-fluoro-3-(7-fluoro-3,3-dimethyl-2,3-dihydro-1H-indol-1-yl)-2,3-dihydro-1-benzofuran-2-yl]-N-methylmethanamine hydrochloride]
0.319 | CN(C)C[C@H]1Oc2ccccc2[C@@H]1N1CC(C)(C)c2cccc(F)c21 [Example 3, 1-[(2R,3S)-3-(7-fluoro-3,3-dimethyl-2,3-dihydro-1H-indol-1-yl)-2,3-dihydro-1-benzofuran-2-yl]-N,N-dimethylmethanamine hydrochloride]
0.095 | CC1(C)CN([C@H]2c3ccccc3O[C@@H]2CN)c2c(F)cccc21 [Example 4, 1-[(2R,3S)-3-(7-fluoro-3,3-dimethyl-2,3-dihydro-1H-indol-1-yl)-2,3-dihydro-1-benzofuran-2-yl]methanamine hydrochloride]
